Structures are written as SMILES.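 Step 1: Grow cells in 96-well plates. Step 2: Expose to compound for 48 hours at 5 concentrations. Step 3: Interpolate endpoints linearly; if unreached, use highest concentration. GI50 marks 50% less growth. TGI denotes the concentration required for complete inhibition of growth.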

The results in this text go back to PubChem BioAssay (NCI).

Among the test systems are EKVX NSCLC; HCT-15 colon; HOP-92 NSCLC; HT29 colon; NCI-H23 lung; RXF 393 renal; SF-539 CNS; SK-MEL-5 melanoma; SK-OV-3 ovarian; MDA-MB-231 breast.
Assay in all cases: NCI tumour cell line growth inhibition, 48 h

For the compound `CCCCCCCCCCCCCP(=O)(O)NCC(N)=O`, the TGI in the assay with EKVX NSCLC, in the assay on HCT-15 colon, with HOP-92 NSCLC, in the assay on HT29 colon, with NCI-H23 lung and in the assay on RXF 393 renal was over 100 µM throughout. Moreover, the TGI with SF-539 CNS, in the assay with SK-MEL-5 melanoma and in the assay with SK-OV-3 ovarian was over 100 µM throughout.
Turning to `C=C1CCC2[C@@H](CCC3[C@]2(C)CCC[C@]3(C)C(=O)OC)[C@@H]1CC=O` (stereo partly specified), the TGI in the assay on EKVX NSCLC stood at 77.6 µM; in the assay with HCT-15 colon it was 81.2 µM; in the assay on HOP-92 NSCLC it was 48.9 µM; with HT29 colon, 81 µM; in the assay on NCI-H23 lung, 66.5 µM; in the assay on SF-539 CNS, 37.6 µM. Also, the TGI in the assay with SK-MEL-5 melanoma is 32.5 µM; with SK-OV-3 ovarian, over 100 µM. Further, in the assay on SK-OV-3 ovarian, the GI50 is over 100 µM.
Take `COc1ccc(C(Cl)=C(c2ccc(OCCN(C)C)cc2)c2ccc(OCCN(C)C)cc2)cc1`: the TGI in the assay on EKVX NSCLC turned out to be 18.1 µM; with HCT-15 colon, 3.58 µM; with HOP-92 NSCLC, 6.1 µM; with HT29 colon, 3 µM; in the assay with NCI-H23 lung it was 3.98 µM; with RXF 393 renal, 2.65 µM. The TGI in the assay on SF-539 CNS is 2.93 µM; with SK-MEL-5 melanoma, 3.52 µM; in the assay with SK-OV-3 ovarian, 7.69 µM.
`O=C(NC1CCCC1=O)c1ccccc1` (stereo unspecified): the TGI in the assay with EKVX NSCLC, in the assay on HOP-92 NSCLC, in the assay with HT29 colon, with NCI-H23 lung, with RXF 393 renal and with SF-539 CNS was over 100 µM each time. The TGI in the assay on SK-MEL-5 melanoma and with SK-OV-3 ovarian was over 100 µM each time.
On to `Cc1cc(N(CCC#N)CCC#N)ccc1/C=C1/N=C(c2ccccc2)N(N)C1=O`, for which the TGI was over 100 µM in the assay with EKVX NSCLC; over 100 µM in the assay with HCT-15 colon; 99.9 µM in the assay with HOP-92 NSCLC; over 100 µM in the assay with HT29 colon; over 100 µM in the assay on NCI-H23 lung; over 100 µM in the assay on SF-539 CNS. For the same compound, the TGI in the assay on SK-MEL-5 melanoma and in the assay on SK-OV-3 ovarian was over 100 µM in each case.
On to `N#Cc1ccc(N=Cc2c([O-])ccc3ccccc23)cc1.[C-]#[O+].[C-]#[O+].[Ir]`, for which the GI50 in the assay with EKVX NSCLC was 11.5 µM; with HOP-92 NSCLC, 3.23 µM; in the assay on HT29 colon, 17.6 µM; with NCI-H23 lung it was 10.5 µM; in the assay on SF-539 CNS, 15.2 µM; in the assay on SK-MEL-5 melanoma, 13.4 µM. The GI50 with SK-OV-3 ovarian was 21.1 µM. Besides, the TGI with EKVX NSCLC was 25 µM; in the assay with HOP-92 NSCLC it was 10.3 µM; in the assay on HT29 colon it was 42.3 µM; with NCI-H23 lung, 24.4 µM; with SF-539 CNS, 29.2 µM; in the assay with SK-MEL-5 melanoma, 26.2 µM. Besides, the TGI in the assay on SK-OV-3 ovarian was 39.1 µM.
`COc1cc2nc(NCCCCCNC(=O)c3ccco3)nc(N)c2cc1OC`: the TGI in the assay on EKVX NSCLC is over 100 µM; in the assay with HCT-15 colon it was over 100 µM; with HOP-92 NSCLC it was 42 µM; in the assay with HT29 colon, over 100 µM; in the assay on NCI-H23 lung, over 100 µM; in the assay on RXF 393 renal it was 83.5 µM. In addition, the TGI is 36.2 µM in the assay with SF-539 CNS, 34.4 µM with SK-MEL-5 melanoma and over 100 µM with SK-OV-3 ovarian.
On to `CN1COc2c(n(C)c(=O)[nH]c2=O)C1`, for which the TGI in the assay on EKVX NSCLC was over 100 µM; in the assay on HCT-15 colon it was over 100 µM; with HOP-92 NSCLC it was over 100 µM; in the assay with HT29 colon, over 100 µM; with NCI-H23 lung, over 100 µM; in the assay with RXF 393 renal, 97.9 µM. In addition, the TGI in the assay with SF-539 CNS, in the assay with SK-MEL-5 melanoma and in the assay on SK-OV-3 ovarian was over 100 µM in each case.
With `CN(C)CCC(/C=C/c1ccccc1)=N\Nc1ccc(Cl)cc1Cl`, the TGI worked out at 31.1 µM in the assay with EKVX NSCLC; 24.2 µM in the assay with HCT-15 colon; 27.2 µM in the assay on HT29 colon; 31.4 µM in the assay with NCI-H23 lung; 21 µM in the assay with RXF 393 renal; 29 µM in the assay with SF-539 CNS. For the same compound, the TGI in the assay with SK-MEL-5 melanoma was found to be 26.2 µM; with SK-OV-3 ovarian, 22.8 µM.
As for `Cc1c(C2=C(c3cn(C)c4ccccc34)C(=O)NC2=O)c2ccccc2n1C`, the GI50 in the assay with HCT-15 colon was 1300 nM; in the assay with HT29 colon, 1.12 µM; in the assay with MDA-MB-231 breast it was over 18.6 µM; with NCI-H23 lung, 13.2 µM; in the assay with RXF 393 renal, 1380 nM; with SF-539 CNS it was 0.921 µM. Moreover, the GI50 is 2.29 µM with SK-MEL-5 melanoma and 1.78 µM in the assay on SK-OV-3 ovarian. The TGI in the assay on HCT-15 colon is over 25 µM; in the assay with HT29 colon it was over 25 µM; in the assay on MDA-MB-231 breast, over 25 µM; in the assay with NCI-H23 lung it was over 25 µM; in the assay with RXF 393 renal, 19.6 µM; in the assay on SF-539 CNS, over 6.77 µM. For the same compound, the TGI in the assay with SK-MEL-5 melanoma and in the assay with SK-OV-3 ovarian was over 25 µM in each case.
Consider `COC(CN1C=C(Sc2ccccc2)CC1)OC`, for which the TGI in the assay on EKVX NSCLC is over 100 µM; in the assay on HCT-15 colon, over 100 µM; with HOP-92 NSCLC, 86.5 µM; in the assay on HT29 colon, 54.2 µM; with NCI-H23 lung it was 69.7 µM; with RXF 393 renal, 66.6 µM. Moreover, the TGI in the assay on SF-539 CNS was 68.3 µM; in the assay with SK-MEL-5 melanoma, 34.7 µM; with SK-OV-3 ovarian it was 93 µM.
As to `COC(=O)C(C)(C)N=CN(C)C`, the TGI with EKVX NSCLC, in the assay with HCT-15 colon, in the assay on HOP-92 NSCLC, with HT29 colon, in the assay on NCI-H23 lung and with RXF 393 renal was over 100 µM each time. Further, the TGI in the assay on SF-539 CNS, in the assay on SK-MEL-5 melanoma and in the assay with SK-OV-3 ovarian was over 100 µM in each case.
Take `c1ccc(P(=Nc2ccccc2N=P(c2ccccc2)(c2ccccc2)c2ccccc2)(c2ccccc2)c2ccccc2)cc1`: the TGI came to 15 µM with EKVX NSCLC; 0.573 µM in the assay on HOP-92 NSCLC; 11.6 µM in the assay on HT29 colon; 2.25 µM in the assay with NCI-H23 lung; 9 µM with RXF 393 renal; 10.4 µM with SF-539 CNS. Also, the values for the TGI in the assay on SK-MEL-5 melanoma and in the assay with SK-OV-3 ovarian were 1.95 µM and 3.52 µM, respectively.
Take `CC1(C)C2CCC13CS(=O)(=O)N1O[C@]13C(=O)O2` (stereo partly specified): the TGI in the assay on EKVX NSCLC, in the assay with HCT-15 colon, in the assay with HOP-92 NSCLC, in the assay with HT29 colon, with NCI-H23 lung and in the assay on SF-539 CNS was over 100 µM in each case.
